According to patent US10947188B2, “Small molecule ferroptosis inducers” (THE TRUSTEES OF COLUMBIA UNIVERSITY IN THE CITY OF NEW YORK, priority 2016, dated 2021):

Test system: HT-1080
Test: Modulatory profiling: Alamar Blue viability, lethal compound cotreated with death modulator (EC50, AUC); as to AUC HT.BHA: reference of the scale not given here; as to AUC HT.EGTA: reference of the scale not given here
Type: cell-based
Design: AUC, modulator HT.3MA / AUC, modulator HT.ALLN / AUC HT.ATA / AUC HT.ActD / AUC HT.BHA / AUC HT.BHT / AUC HT.BocD / AUC HT.CHX / AUC HT.Co2+ / AUC HT.DPQ / AUC HT.EGTA / AUC HT.Lmim / AUC HT.NAD+ / AUC HT.Nec-1 / AUC HT.SP600125 / AUC HT.TLCK / AUC HT.U0126: unit not given beside the values
Settings: for AUC HT.ATA: HT-1080, modulator ATA; for AUC HT.ActD: HT-1080, modulator ActD; for AUC HT.BHA: HT-1080, modulator BHA; for AUC HT.BHT: HT-1080, modulator BHT; for AUC HT.BocD: HT-1080, modulator BocD; for AUC HT.CHX: HT-1080, modulator CHX; for AUC HT.Co2+: HT-1080, modulator Co2+; for AUC HT.CspA: HT-1080, modulator CspA; for AUC HT.DPQ: HT-1080, modulator DPQ; for AUC HT.EGTA: HT-1080, modulator EGTA; for AUC HT.Gd3+: HT-1080, modulator Gd3+; for AUC HT.LNAME: HT-1080, modulator LNAME; for AUC HT.Lmim: HT-1080, modulator Lmim; for AUC HT.NAD+: HT-1080, modulator NAD+; for AUC HT.NMMA: HT-1080, modulator NMMA; for HT.atoc (AUC) / HT.bCarotene (AUC) / HT.deferox (AUC) / HT.digoxin (AUC) / HT.trolox (AUC) / HT.zVAD (AUC) / EC50: HT-1080; for HT.atoc (AUC): modulator atoc; for HT.bCarotene (AUC): modulator bCarotene; for HT.deferox (AUC): modulator deferox; for HT.digoxin (AUC): modulator digoxin; for HT.trolox (AUC): modulator trolox; for HT.zVAD (AUC): modulator zVAD; for effect of ferroptosis inhibitors (iron chelators and lipophilic antioxidants) on lethality in modulatory profiling: HT-1080 and BJeLR; for EC50: Homo sapiens, HT-1080, 48 h, 48 h; for AUC, modulator HT.3MA / AUC, modulator HT.ALLN: HT-1080 cells, modulatory profile value (AUC); for AUC, modulator HT.3MA: lethal compound cotreated with modulator 3MA; for AUC, modulator HT.ALLN: lethal compound cotreated with modulator ALLN
[1] = cotreated with antioxidant Atoc
[2] = cotreated with antioxidant Trolox
[3] = cotreated with iron-chelator Deferoxamine
[4] = cotreated with iron-chelator Lmim

Row | SMILES | AUC HT.ATA | AUC HT.ActD | AUC HT.BHA | AUC HT.BHT | AUC HT.BocD | AUC HT.CHX | AUC HT.Co2+ | AUC HT.CspA | AUC HT.DPQ | AUC HT.EGTA | AUC HT.Gd3+ | AUC HT.LNAME | AUC HT.Lmim | AUC HT.NAD+ | AUC HT.NMMA | HT.atoc (AUC) | HT.bCarotene (AUC) | HT.deferox (AUC) | HT.digoxin (AUC) | HT.trolox (AUC) | other results
1 | COC(=O)[C@@H]1Cc2c([nH]c3ccccc23)C(C)(C)N1C(=O)CCl [CIL79] | −0.05302 | −0.04021 | 0.3909 | 0.3644 | −0.002385 | 0.02794 | 0.2948 | −0.03389 | 0.04764 | 0.02262 | −0.02579 | 0.01224 | 0.4052 | −0.004292 | 0.003194 | 0.4488 | 0.005675 | 0.5494 | −0.0705 | 0.4225 | HT.zVAD (AUC): 0.003682; effect of ferroptosis inhibitors (iron chelators and lipophilic antioxidants) on lethality in modulatory profiling: suppression by canonical ferroptosis inhibitors; EC50 (DMSO): 271 nM; EC50 (cotreated with MEK inh U0126): 14300 nM; EC50 [1]: 11700 nM; EC50 (cotreated with antioxidant BHA): 10100 nM; EC50 (cotreated with antioxidant BHT): 6300 nM; EC50 [2]: 10200 nM; EC50 [3]: 32400 nM; EC50 [4]: 12000 nM
2 | COC(C)(C)C#CC(=O)c1cccc2ccccc12 [CIL34] | 0.05661 | −0.03224 | 0.01628 | −0.1102 | −0.007476 | 0.0461 | 0.09926 | −0.02181 | 0.0333 | −0.002035 | −0.02283 | −0.00517 | −0.002139 | −0.005535 | −0.003031 | 0.08125 | 0.001321 | 0.1115 | −0.01032 | −0.02993 | HT.zVAD (AUC): 0.007148; AUC, modulator HT.3MA: 0.1255; AUC, modulator HT.ALLN: 0.1551
3 | O=C(CCl)N(c1ccc(Cl)cc1)c1c[nH]c2ccccc12 [CIL75] | −0.01715 | 0.01892 | 0.3131 | 0.2828 | −0.01219 | 0.0402 | 0.1217 | −0.009674 | 0.01971 | −0.007018 | −0.02285 | −0.01737 | 0.2499 | −0.002594 | −0.02794 | 0.3816 | −0.01871 | 0.4009 | −0.037 | 0.3452 | HT.zVAD (AUC): 0.0001191; effect of ferroptosis inhibitors (iron chelators and lipophilic antioxidants) on lethality in modulatory profiling: suppression by canonical ferroptosis inhibitors; EC50 (DMSO): 144 nM; EC50 (cotreated with MEK inh U0126): 2530 nM; EC50 [1]: 2940 nM; EC50 (cotreated with antioxidant BHA): 2750 nM; EC50 (cotreated with antioxidant BHT): 1720 nM; EC50 [2]: 2560 nM; EC50 [3]: 4820 nM; EC50 [4]: 2470 nM
4 | O=S(=O)(c1ccc2c(c1)C(=NO)c1cc(S(=O)(=O)N3CCCCC3)ccc1-2)N1CCCCC1 [CIL56, 2,7-bis(piperidin-1-ylsulfonyl)-9H-fluoren-9-one oxime] | −0.01939 | −0.124 | 0.1774 | 0.0146 | −0.0127 | −0.07234 | 0.01296 | 0.01564 | 0.06245 | 0.02378 | −0.01542 | 0.05375 | 0.1017 | 0.02315 | −0.01475 | 0.2436 | 0.05423 | 0.1269 | −0.1402 | 0.1421 | HT.zVAD (AUC): 0.03666; effect of ferroptosis inhibitors (iron chelators and lipophilic antioxidants) on lethality in modulatory profiling: suppression by canonical ferroptosis inhibitors; EC50 (DMSO): 443 nM; EC50 (cotreated with MEK inh U0126): 2810 nM; EC50 [1]: 2490 nM; EC50 (cotreated with antioxidant BHA): 2650 nM; EC50 (cotreated with antioxidant BHT): 1690 nM; EC50 [2]: 1310 nM; EC50 [3]: 1360 nM; EC50 [4]: 1530 nM
5 | C[S+]([O-])c1nc(-c2ccc(Br)cc2)cc(-c2ccccc2)c1C#N (stereo not shown) [CIL17] | −0.0157 | −0.03982 | −0.02052 | −0.138 | 0.0313 | 0.06579 | −0.008436 | −0.03354 | −0.02303 | 0.001857 | −0.04318 | 0.02242 | −0.0132 | 0.04423 | −0.02639 | 0.145 | −0.005211 | 0.02894 | −0.003189 | 0.004595 | HT.zVAD (AUC): 0.008536; AUC, modulator HT.3MA: 0.01558; AUC, modulator HT.ALLN: 0.03631
